# Reference: US11974572B2, “Fungicidal compositions” (SYNGENTA PARTICIPATIONS AG, priority 2017, dated 2024)
# Columns and labels:
# Phakopsora pachyrhizi = test: Example A3: Phakopsora pachyrhizi / soybean / leaf disc preventative (Asian soybean rust); format: in vivo; settings: foliar, 200 ppm in the applied formulation, soybean leaf disks, compared to untreated control leaf disks, read-out: disease control
# Method: (§1) Leaf disks or leaf segments of various plant species are cut from plants grown in a greenhouse. The cut leaf disks or segments are placed in multiwell plates (24-well format) onto water agar. The leaf disks are sprayed with a test solution before (preventative) or after (curative) inoculation. Compounds to be tested are prepared as DMSO solutions (max. 10 mg/ml) which are diluted to the appropriate concentration with 0.025% Tween20 just before spraying. The inoculated leaf disks or segments are incubated under defined conditions (temperature, relative humidity, light, etc.) according to the respective test system. A single evaluation of disease level is carried out 3 to 14 days after inoculation, depending on the pathosystem. Percent disease control relative to the untreated check leaf disks or segments is then calculated.
# Soybean leaf disks are placed on water agar in multiwell plates (24-well format) and sprayed with the formulated test compound diluted in water. One day after application leaf discs are inoculated by spraying a spore suspension on the lower leaf surface. […] The activity of a compound is assessed as percent disease control compared to untreated when an appropriate level of disease damage appears in untreated check leaf disks (12 to 14 days after application). […]
# [1] = tested on: Glomerella lagenarium (Colletotrichum lagenarium); test: Example A4: Glomerella lagenarium (Colletotrichum lagenarium) liquid culture / cucumber / preventative (anthracnose); format: cell-based; settings: Colletotrichum orbiculare, 20 ppm in the applied formulation, compared to untreated control, read-out: disease control
# Method: Mycelia fragments or conidia suspensions of a fungus prepared either freshly from liquid cultures of the fungus or from cryogenic storage, are directly mixed into nutrient broth. DMSO solutions of the test compound (max. 10 mg/ml) are diluted with 0.025% Tween20 by a factor of 50 and 10 μl of this solution is pipetted into a microtiter plate (96-well format). The nutrient broth containing the fungal spores/mycelia fragments is then added to give an end concentration of the tested compound. The test plates are incubated in the dark at 24° C. and 96% relative humidity. The inhibition of fungal growth is determined photometrically after 2 to 7 days, depending on the pathosystem, and percent antifungal activity relative to the untreated check is calculated.
# Conidia of the fungus from cryogenic storage are directly mixed into nutrient broth (PDB—potato dextrose broth). After placing a (DMSO) solution of test compound into a microtiter plate (96-well format), the nutrient broth containing the fungal spores is added.
# The following compounds at 20 ppm in the applied formulation give at least 80% disease control in this test when compared to untreated control under the same conditions, which show extensive disease development.
# [2] = tested on: Puccinia recondita f. sp. tritici; test: Example A2: Puccinia recondita f. sp. tritici / wheat / leaf disc curative (brown rust); format: in vivo; settings: foliar, 200 ppm in the applied formulation, wheat leaf segments, compared to untreated control leaf disks, read-out: disease control
# Method: as §1
# Wheat leaf segments cv. Kanzler are placed on agar in multiwell plates (24-well format). The leaf segments are then inoculated with a spore suspension of the fungus. […] The leaf segments were incubated at 19° C. and 75% relative humidity under a light regime of 12 hours light/12 hours darkness in a climate cabinet and the activity of a compound was assessed as percent disease control compared to untreated when an appropriate level of disease damage appears in untreated check leaf segments (6 to 8 days after application). […]
# [3] = tested on: Puccinia recondita f. sp. tritici; test: Example A1: Puccinia recondita f. sp. tritici / wheat / leaf disc preventative (brown rust); format: in vivo; settings: foliar, 200 ppm in the applied formulation, wheat leaf segments, compared to untreated control leaf disks, read-out: disease control
# Method: as §1
# Wheat leaf segments cv. Kanzler were placed on agar in multiwell plates (24-well format) and sprayed with the formulated test compound diluted in water. […] The inoculated leaf segments were incubated at 19° C. and 75% relative humidity (rh) under a light regime of 12 hours light/12 hours darkness in a climate cabinet and the activity of a compound was assessed as percent disease control compared to untreated when an appropriate level of disease damage appears in untreated check leaf segments (7 to 9 days after application). […]
Compound,melting point [°C],pest or weed control at 200 ppm (Phakopsora pachyrhizi) [%],inhibition of growth at 20 ppm [1] [%],pest or weed control at 200 ppm [2] [%],pest or weed control at 200 ppm [3] [%]
"COCC(=O)N(Cc1ccc(-c2noc(C(F)(F)F)n2)cc1)CC(F)(F)F [X.09, 2-methoxy-N-(2,2,2-trifluoroethyl)-N-[[4-[5-(trifluoromethyl)-1,2,4-oxadiazol-3-yl]phenyl]methyl]acetamide]",92.6 to 94.3,,,,
"CON(Cc1ccc(-c2noc(C(F)(F)F)n2)cc1)C(=O)NC1CC1 [X.15, 3-cyclopropyl-1-methoxy-1-[[4-[5-(trifluoromethyl)-1,2,4-oxadiazol-3-yl]phenyl]methyl]urea]",84 to 87,,,,
"CCONC(=O)N(Cc1ccc(-c2noc(C(F)(F)F)n2)cc1)OC [X.16, 3-ethoxy-1-methoxy-1-[[4-[5-(trifluoromethyl)-1,2,4-oxadiazol-3-yl]phenyl]methyl]urea]",107 to 110,,,,
"C=CCNC(=O)N(Cc1ccc(-c2noc(C(F)(F)F)n2)cc1)OC [X.17, 3-allyl-1-methoxy-1-[[4-[5-(trifluoromethyl)-1,2,4-oxadiazol-3-yl]phenyl]methyl]urea]",64 to 70,,,,
"CON(Cc1ccc(-c2noc(C(F)(F)F)n2)cc1)C(=O)NC(C)C [X.19, 3-isopropyl-1-methoxy-1-[[4-[5-(trifluoromethyl)-1,2,4-oxadiazol-3-yl]phenyl]methyl]urea]",106 to 107.3,,,,
"C#CCNC(=O)N(Cc1ccc(-c2noc(C(F)(F)F)n2)cc1)OC [X.20, 1-methoxy-3-prop-2-ynyl-1-[[4-[5-(trifluoromethyl)-1,2,4-oxadiazol-3-yl]phenyl]methyl]urea]",88.9 to 90.6,,,,
"CN(Cc1ccc(-c2noc(C(F)(F)F)n2)cc1)C(=O)NCC1CC1 [X.22, 3-(cyclopropylmethyl)-1-methyl-1-[[4-[5-(trifluoromethyl)-1,2,4-oxadiazol-3-yl]phenyl]methyl]urea]",,≥ 80,≥ 80,≥ 80,≥ 80
"CCN(Cc1ccc(-c2noc(C(F)(F)F)n2)cc1)C(=O)NCC(F)(F)F [X.23, 1-ethyl-3-(2,2,2-trifluoroethyl)-1-[[4-[5-(trifluoromethyl)-1,2,4-oxadiazol-3-yl]phenyl]methyl]urea]",,≥ 80,≥ 80,≥ 80,≥ 80
